Like-named read-outs stand apart in the source and are kept apart here.
Key:
[1] = system: S. aureus; assay: MIC against S. aureus strains and clinical isolates (broth microdilution); assay type: cell-based, Staphylococcus aureus
Experimental: were tested against a collection of clinical isolates of S. aureus including strains that were multi-resistant to mupirocin and to other agents such as gentamicin and oxacillin.
The acetate and mupirocin salts of the MRS inhibitor compound 5 were tested against a collection of both low and high-level mupirocin resistant clinical isolates of S. aureus (Table 6).
The bacterial strains were tested for susceptibility to mupirocin and MRSi compound 2 using the broth microdilution method in accordance with NCCLS guideline to determine their MICs.
Briefly, the MIC and checkerboard titration assays were performed with strains in microtiter trays with cation-supplemented Mueller-Hinton broth (Difco). Inocula were prepared by suspending growth from blood agar plates in sterile saline to a density equivalent to that of a 0.5 McFarland standard and were diluted […] to produce a final inoculum of 5×10^5 CFU/ml. The trays were incubated aerobically overnight. Standard quality control strains were included with each run. Fractional inhibitory concentrations (FICs) were calculated as the MIC of drug A or B in combination/MIC of drug A or B alone, and the FIC index was obtained by adding the two FICs. FIC indices were interpreted as synergistic if the values were ≦0.5, additive or indifferent if the values were >0.5 to 4, and antagonistic if the values were >4.0.

[2] = system: E. faecalis; assay: MIC against E. faecalis; assay type: cell-based
Experimental: (§1) The MRS inhibitor 4 alone and in combination with mupirocin (mupirocin salt and 1:1 combination) were tested against a collection of Gram-positive pathogens.
MRSi compound 5 alone and in combination with mupirocin was tested recent clinical isolates of E. faecalis (n=28) and E. faecium (n=23). Both the acetate salt and mupirocinate salts of MRSi compound 5 maintained potent activity against vancomycin-susceptible and—resistant enterococci (Tables 8, 9, and 10).

[3] = system: S. pyogenes; assay: MIC against S. pyogenes; assay type: cell-based, Streptococcus pyogenes
Experimental: as §1
S. pyogenes is also a significant skin pathogen and 48 recent clinical isolates were tested for their susceptibility to MRSi compound 5 alone (acetate) and in combination (1:1) with mupirocin (mupirocinate).

[4] = system: S. epidermidis; assay: MIC against S. epidermidis; assay type: cell-based
Experimental: as §1
(§2) The MRS inhibitor 8 was also prepared as a fusidate and mupirocinate salt and tested for antibacterial activity against Gram-positive bacteria (Table 3). […] MRSi compound 8 alone and the fusidate and mupirocin salts were active against mupirocin-resistant S. aureus and S. epidermidis and organisms such as E. faecalis that are not susceptible to mupirocin.
(§3) The MRS inhibitor 5 acetate and mupirocin salts were tested against a collection of Gram-positive bacteria.

[5] = system: S. hemolyticus; assay: MIC against S. hemolyticus; assay type: cell-based
Experimental: as §1, §2, §3

[6] = Table 3, S. aureus ATCC 43300 (ORSA)
[7] = Table 3, S. aureus NRS107 (mupA)
[8] = Table 3, E. faecalis ATCC 29212
[9] = Table 3, S. pyogenes ATCC 19615
[10] = Table 3, S. pyogenes MB143 (macrolide rest.)

Question: For `Cc1c(CNCCCNc2cc(=O)c3ccccc3[nH]2)sc(Br)c1Br` [MRSI Cmpd 4 acetate, N-(4,5-Dibromo-3-methylthiophen-2-ylmethyl)-N′-(1H-quinolin-4-one)propane-1,3-diamine], which MIC ([1]; Staphylococcus aureus, ATCC29213, Table 2, S. aureus ATCC 29213, read-out: MIC) is on record?
Answer: 0.25 µg/mL

Question: And the MIC ([1]; Staphylococcus aureus, ATCC43300, Table 2, S. aureus ATCC 43300 (ORSA), read-out: MIC)?
Answer: 0.25 µg/mL

Question: What about the MIC ([1]; Staphylococcus aureus, NRS107, Table 2, S. aureus NRS107 (mupA), read-out: MIC) of the same compound?
Answer: 0.03 µg/mL

Question: What about the MIC ([1]; Staphylococcus aureus, Table 2, S. aureus Oxford, read-out: MIC) of the same compound?
Answer: 0.03 µg/mL

Question: And the MIC ([2]; Enterococcus faecalis, ATCC29212, Table 2, E. faecalis ATCC 29212, read-out: MIC)?
Answer: ≤ 0.008 µg/mL

Question: And the MIC ([2]; Enterococcus faecalis, Table 2, E. faecalis 1, read-out: MIC)?
Answer: 0.015 µg/mL

Question: And the MIC ([2]; Enterococcus faecalis, Table 2, E. faecalis 7, read-out: MIC)?
Answer: ≤ 0.008 µg/mL

Question: And the MIC ([3]; Streptococcus pyogenes, ATCC19615, Table 2, S. pyogenes ATCC 19615, read-out: MIC)?
Answer: 0.25 µg/mL

Question: And the MIC ([3]; Streptococcus pyogenes, Table 2, S. pyogenes MB143 (macrolide rest.), read-out: MIC)?
Answer: 0.12 µg/mL

Question: And the MIC ([4]; Staphylococcus epidermidis, Table 2, S. epidermidis NRS6, read-out: MIC)?
Answer: 0.5 µg/mL

Question: What about the MIC ([4]; Staphylococcus epidermidis, Table 2, S. epidermidis NRS7, read-out: MIC) of the same compound?
Answer: 0.03 µg/mL

Question: And the MIC ([4]; Staphylococcus epidermidis, Table 2, S. epidermidis NRS8, read-out: MIC)?
Answer: 0.25 µg/mL

Question: What about the MIC ([5]; Table 2, S. hemolyticus NRS50, read-out: MIC) of the same compound?
Answer: 0.25 µg/mL

Question: What about the MIC ([5]; Table 2, S. hemolyticus NRS116, read-out: MIC) of the same compound?
Answer: 0.5 µg/mL

Question: Which MIC ([1]; Staphylococcus aureus, ATCC29213, Table 3, S. aureus ATCC 29213, read-out: MIC) does the source give for `Clc1cc(Cl)c2c(Cl)c(CNCCCNc3nc4ncccc4[nH]3)[nH]c2c1` [MRSi Cmpd 8 acetate, N-(1H-imidazo[4,5-b]pyridin-2-yl)-N′-(3,4,6-trichloro-1H-indol-2-ylmethyl)—propane-1,3-diamine] here?
Answer: 0.06 µg/mL

Question: And the MIC ([1]; Staphylococcus aureus, ATCC43300, Table 3, S. aureus ATCC 43300 (ORSA), read-out: MIC)?
Answer: 0.03 µg/mL

Question: What about the MIC ([1]; Staphylococcus aureus, NRS107, Table 3, S. aureus NRS107 (mupA), read-out: MIC) of the same compound?
Answer: 0.03 µg/mL

Question: And the MIC ([1]; Staphylococcus aureus, Table 3, S. aureus Oxford, read-out: MIC)?
Answer: 0.03 µg/mL

Question: What about the MIC ([2]; Enterococcus faecalis, ATCC29212, Table 3, E. faecalis ATCC 29212, read-out: MIC) of the same compound?
Answer: 0.03 µg/mL

Question: And the MIC ([2]; Enterococcus faecalis, Table 3, E. faecalis 1, read-out: MIC)?
Answer: 0.03 µg/mL

Question: What about the MIC ([2]; Enterococcus faecalis, Table 3, E. faecalis 7, read-out: MIC) of the same compound?
Answer: 0.03 µg/mL

Question: And the MIC ([3]; Streptococcus pyogenes, ATCC19615, Table 3, S. pyogenes ATCC 19615, read-out: MIC)?
Answer: 0.12 µg/mL

Question: And the MIC ([3]; Streptococcus pyogenes, Table 3, S. pyogenes MB143 (macrolide rest.), read-out: MIC)?
Answer: 0.12 µg/mL

Question: What about the MIC ([4]; Staphylococcus epidermidis, Table 3, S. epidermidis NRS6, read-out: MIC) of the same compound?
Answer: 0.12 µg/mL

Question: What about the MIC ([4]; Staphylococcus epidermidis, Table 3, S. epidermidis NRS7, read-out: MIC) of the same compound?
Answer: 0.06 µg/mL

Question: What about the MIC ([4]; Staphylococcus epidermidis, Table 3, S. epidermidis NRS8, read-out: MIC) of the same compound?
Answer: 0.12 µg/mL

Question: And the MIC ([5]; Table 3, S. hemolyticus NRS50, read-out: MIC)?
Answer: 0.06 µg/mL

Question: And the MIC ([5]; Table 3, S. hemolyticus NRS116, read-out: MIC)?
Answer: 0.12 µg/mL

Question: What does the source list for `CC(=O)O[C@H]1C[C@@]2(C)[C@@H](C[C@@H](O)[C@H]3[C@@]4(C)CC[C@@H](O)[C@@H](C)[C@@H]4CC[C@@]32C)/C1=C(\CCC=C(C)C)C(=O)O.Clc1cc(Cl)c2c(Cl)c(CNCCCNc3nc4ncccc4[nH]3)[nH]c2c1` [MRSi Cmpd 8 fusidate, N-(1H-IMIDAZO[4,5-B] PYRIDIN-2-YL)-N′-(3,4,6-TRICHLORO-1H-INDOL-2-YLMETHYL)-PROPANE-1,3-DIAMINE FUSIDATE]?
Answer: MIC ([1]; Table 3, S. aureus ATCC 29213): 0.12 µg/mL; MIC [1, 6]: 0.06 µg/mL; MIC [1, 7]: 0.06 µg/mL; MIC ([1]; Table 3, S. aureus Oxford): 0.06 µg/mL; MIC ([2]; Table 3, E. faecalis 1): 0.06 µg/mL; MIC ([2]; Table 3, E. faecalis 7): 0.12 µg/mL; MIC [2, 8]: 0.12 µg/mL; MIC [3, 9]: 0.5 µg/mL; MIC [3, 10]: 0.5 µg/mL; MIC ([4]; Table 3, S. epidermidis NRS6): 0.25 µg/mL; MIC ([4]; Table 3, S. epidermidis NRS7): 0.12 µg/mL; MIC ([4]; Table 3, S. epidermidis NRS8): 0.25 µg/mL; MIC ([5]; Table 3, S. hemolyticus NRS50): 0.12 µg/mL; MIC ([5]; Table 3, S. hemolyticus NRS116): 0.25 µg/mL

Question: Which MIC ([1]; Table 3, S. aureus ATCC 29213) does the source give for `CC(=CC(=O)OCCCCCCCCC(=O)O)CC1OCC(CC2OC2C(C)C(C)O)C(O)C1O.Clc1cc(Cl)c2c(Cl)c(CNCCCNc3nc4cccnc4[nH]3)[nH]c2c1` (stereo not shown) [MRSi Cmpd 8 mupirocinate, N-(1H-IMIDAZO [4,5-B]PYRIDIN-2-YL)-N′-(3,4,6-TRICHLORO-1H—INDOL-2-YLMETHYL)-PROPANE-1,3-DIAMINE MUPIROCINATE] here?
Answer: 0.12 µg/mL

Question: What about the MIC [1, 6] of the same compound?
Answer: 0.12 µg/mL

Question: What about the MIC [1, 7] of the same compound?
Answer: 0.12 µg/mL

Question: And the MIC ([1]; Table 3, S. aureus Oxford)?
Answer: 0.12 µg/mL

Question: What about the MIC ([2]; Table 3, E. faecalis 1) of the same compound?
Answer: 0.06 µg/mL

Question: And the MIC ([2]; Table 3, E. faecalis 7)?
Answer: 0.12 µg/mL

Question: And the MIC [2, 8]?
Answer: 0.12 µg/mL

Question: What about the MIC [3, 9] of the same compound?
Answer: 0.25 µg/mL

Question: What about the MIC [3, 10] of the same compound?
Answer: 0.12 µg/mL

Question: And the MIC ([4]; Table 3, S. epidermidis NRS6)?
Answer: 0.5 µg/mL

Question: What about the MIC ([4]; Table 3, S. epidermidis NRS7) of the same compound?
Answer: 0.12 µg/mL

Question: What about the MIC ([4]; Table 3, S. epidermidis NRS8) of the same compound?
Answer: 0.25 µg/mL

Question: What about the MIC ([5]; Table 3, S. hemolyticus NRS50) of the same compound?
Answer: 0.12 µg/mL

Question: And the MIC ([5]; Table 3, S. hemolyticus NRS116)?
Answer: 0.25 µg/mL

Question: How did the MIC ([1]; Table 2, S. aureus ATCC 29213) turn out when `CC(=CC(=O)OCCCCCCCCC(=O)O)CC1OCC(CC2OC2C(C)C(C)O)C(O)C1O.Cc1c(CNCCCNc2cc(=O)c3ccccc3[nH]2)sc(Br)c1Br` (stereo not shown) [MRSi Cmpd 4 mupirocinate, N-(4,5-DIBROMO-3-METHYLTHIOPHEN-2-YLMETHYL)-N′-(1H-QUINOLIN-4-ONE)PROPANE-1,3-DIAMINE MUPIROCINATE] was run?
Answer: 0.5 µg/mL

Question: What about the MIC ([1]; Table 2, S. aureus ATCC 43300 (ORSA)) of the same compound?
Answer: 0.5 µg/mL

Question: And the MIC ([1]; Table 2, S. aureus NRS107 (mupA))?
Answer: 0.25 µg/mL

Question: And the MIC ([1]; Table 2, S. aureus Oxford)?
Answer: 0.25 µg/mL

Question: What about the MIC ([2]; Table 2, E. faecalis 1) of the same compound?
Answer: 0.12 µg/mL

Question: And the MIC ([2]; Table 2, E. faecalis 7)?
Answer: 0.12 µg/mL

Question: And the MIC ([2]; Table 2, E. faecalis ATCC 29212)?
Answer: 0.06 µg/mL

Question: What about the MIC ([3]; Table 2, S. pyogenes ATCC 19615) of the same compound?
Answer: 0.25 µg/mL

Question: What about the MIC ([3]; Table 2, S. pyogenes MB143 (macrolide rest.)) of the same compound?
Answer: 0.25 µg/mL

Question: And the MIC ([4]; Table 2, S. epidermidis NRS6)?
Answer: 1 µg/mL

Question: What about the MIC ([4]; Table 2, S. epidermidis NRS7) of the same compound?
Answer: 0.25 µg/mL

Question: And the MIC ([4]; Table 2, S. epidermidis NRS8)?
Answer: 1 µg/mL

Question: And the MIC ([5]; Table 2, S. hemolyticus NRS50)?
Answer: 0.5 µg/mL

Question: What about the MIC ([5]; Table 2, S. hemolyticus NRS116) of the same compound?
Answer: 0.5 µg/mL

Reference: US20040224981A1, “Antibacterial methods and compositions” (priority 2003, published 2004)
